Laboratory results: patent publication US10456407B2, “Combination therapy for treating cancer” (Epizyme, Inc., priority 2015, dated 2019)
“And” between values parts separate entries of the source, which are not always exact repeats. Equal entries are not always repeated.

Test system: DOHH2 cells
Assay: RT2 Glucocorticoid signaling PCR array, DOHH2 cell line (Table 4b)
Format: cell-based
Settings: DOHH2, 4 days

## CCN(c1cc(-c2ccc(CN3CCOCC3)cc2)cc(C(=O)NCc2c(C)cc(C)[nH]c2=O)c1C)C1CCOCC1 [Compound 44]
  ACTB Ct Values: 14.519
  ADARB1 Ct Values: 31.431
  AFF1 Ct Values: 23.888
  AK2 Ct Values: 20.173
  AMPD3 Ct Values: 26.146
  ANGPTL4 Ct Values: 30.820
  ANXA4 Ct Values: 24.273
  ARID68 Ct Values: 23.782
  ASPH Ct Values: 22.823
  ATF4 Ct Values: 19.190
  B2M Ct Values: 18.576
  BCL6 Ct Values: 21.323
  BMPER Ct Values: 39.092
  CALCR Ct Values: 33.360
  CEBPA Ct Values: 30.676
  CEBPB Ct Values: 23.925
  COL4A2 Ct Values: 34.119
  CREB1 Ct Values: 22.746
  CREB3 Ct Values: 24.840
  CREB3L4 Ct Values: 24.110
  CTGF Ct Values: 32.760
  CYB561 Ct Values: 31.945
  DDIT4 Ct Values: 23.508
  DUSP1 Ct Values: 27.132
  EDN1 Ct Values: 32.260
  EHD3 Ct Values: 28.852
  ERRFI1 Ct Values: 30.163
  FK8PS Ct Values: 21.520
  FOSL2 Ct Values: 29.872
  GAPDH Ct Values: 16.197
  GDPD1 Ct Values: 27.570
  GHRHR Ct Values: 39.644
  GLUL Ct Values: 36.671
  GOT1 Ct Values: 23.126
  H6PD Ct Values: 24.377
  HNRPLL Ct Values: 29.151
  HPRT1 Ct Values: 21.561
  IL1RN Ct Values: 32.271
  IL6R Ct Values: 31.962
  KLF9 Ct Values: 28.439
  KLF13 Ct Values: 22.420
  LOX Ct Values: 32.997
  MERTK Ct Values: 32.456
  NFKBIA Ct Values: 22.625
  NR3C1 Ct Values: 22.430
  PDCD7 Ct Values: 23.417
  PDGFRB Ct Values: 35.193
  PDP1 Ct Values: 25.175
  PER1 Ct Values: 24.717
  PER2 Ct Values: 23.835
  PIK3R1 Ct Values: 23.712
  PLEKHF1 Ct Values: 28.946
  POU2F1 Ct Values: 24.003
  POU2F2 Ct Values: 22.167
  RASA3 Ct Values: 27.636
  RGS2 Ct Values: 24.861
  RHOB Ct Values: 30.745
  RPLP0 Ct Values: 14.935
  SESN1 Ct Values: 23.848
  SGK1 Ct Values: 27.821
  SLC10A6 Ct Values: 36.435
  SLC19A2 Ct Values: 24.859
  SLC22A5 Ct Values: 27.992
  SNTA1 Ct Values: 24.550
  SPHK1 Ct Values: 28.863
  SPSB1 Ct Values: 26.652
  STAT5A Ct Values: 23.771
  STAT5B Ct Values: 22.328
  TBL1XR1 Ct Values: 20.994
  TNF Ct Values: 31.849
  TNFAIP3 Ct Values: 27.520
  TSC22D3 Ct Values: 24.752
  USP2 Ct Values: 23.684
  USPS4 Ct Values: 25.892
  VDR Ct Values: 26.426
  VLDLR Ct Values: 27.232
  ZFP36 Ct Values: 23.980
  ZHX3 Ct Values: 24.611
  ZNF281 Ct Values: 23.541
Array control, three lines
  PPC Ct Values: 18.672 and 19.142 and 18.711
  RTC Ct Values: 21.345 and 21.410 and 21.384
Normalized to B2M
  ACTB ΔCT (B2M): −4.057
  ADARB1 ΔCT (B2M): 12.855
  AFF1 ΔCT (B2M): 5.312
  AK2 ΔCT (B2M): 1.597
  AMPD3 ΔCT (B2M): 7.570
  ANGPTL4 ΔCT (B2M): 12.244
  ANXA4 ΔCT (B2M): 5.697
  ASPH ΔCT (B2M): 4.247
  ATF4 ΔCT (B2M): 0.614
  B2M ΔCT (B2M): 0.000
  BCL6 ΔCT (B2M): 2.747
  BMPER ΔCT (B2M): 20.516
  CALCR ΔCT (B2M): 15.054
  CEBPA ΔCT (B2M): 12.100
  CEBPB ΔCT (B2M): 5.349
  COL4A2 ΔCT (B2M): 15.543
  CREB1 ΔCT (B2M): 4.170
  CREB3L4 ΔCT (B2M): 5.534
  CREB3 ΔCT (B2M): 6.264
  CTGF ΔCT (B2M): 14.184
  CYB561 ΔCT (B2M): 13.369
  DDIT4 ΔCT (B2M): 4.932
  DUSP1 ΔCT (B2M): 8.556
  EDN1 ΔCT (B2M): 13.684
  EHD3 ΔCT (B2M): 10.276
  ERRFI1 ΔCT (B2M): 11.587
  FK8PS ΔCT (B2M): 2.944
  FOSL2 ΔCT (B2M): 11.296
  GAPDH ΔCT (B2M): −2.379
  GDPD1 ΔCT (B2M): 8.994
  GHRHR ΔCT (B2M): 21.068
  GLUL ΔCT (B2M): 18.095
  GOT1 ΔCT (B2M): 4.550
  H6PD ΔCT (B2M): 5.801
  HNRPLL ΔCT (B2M): 10.575
  HPRT1 ΔCT (B2M): 2.985
  IL1RN ΔCT (B2M): 13.695
  IL6R ΔCT (B2M): 13.386
  IL6 ΔCT (B2M): 15.874
  KLF9 ΔCT (B2M): 9.863
  KLF13 ΔCT (B2M): 3.844
  LOX ΔCT (B2M): 14.421
  MERTK ΔCT (B2M): 13.880
  NFKBIA ΔCT (B2M): 4.049
  NR3C1 ΔCT (B2M): 3.854
  PDCD7 ΔCT (B2M): 4.841
  PDGFRB ΔCT (B2M): 16.617
  PDP1 ΔCT (B2M): 6.599
  PER1 ΔCT (B2M): 6.141
  PER2 ΔCT (B2M): 5.259
  PIK3R1 ΔCT (B2M): 5.136
  PLEKHF1 ΔCT (B2M): 10.370
  POU2F1 ΔCT (B2M): 5.427
  POU2F2 ΔCT (B2M): 3.591
  RASA3 ΔCT (B2M): 9.060
  RGS2 ΔCT (B2M): 6.285
  RHOB ΔCT (B2M): 12.169
  RPLP0 ΔCT (B2M): −3.641
  SESN1 ΔCT (B2M): 5.272
  SGK1 ΔCT (B2M): 9.245
  SLC10A6 ΔCT (B2M): 17.859
  SLC19A2 ΔCT (B2M): 6.283
  SLC22A5 ΔCT (B2M): 9.416
  SNTA1 ΔCT (B2M): 5.974
  SPHK1 ΔCT (B2M): 10.287
  SPSB1 ΔCT (B2M): 8.076
  STAT5A ΔCT (B2M): 5.195
  STAT5B ΔCT (B2M): 3.752
  TBL1XR1 ΔCT (B2M): 2.415
  TNF ΔCT (B2M): 13.273
  TNFAIP3 ΔCT (B2M): 8.944
  TSC22D3 ΔCT (B2M): 6.176
  USP2 ΔCT (B2M): 5.108
  USPS4 ΔCT (B2M): 7.316
  VDR ΔCT (B2M): 7.850
  VLDLR ΔCT (B2M): 8.656
  ZFP36 ΔCT (B2M): 5.404
  ZHX3 ΔCT (B2M): 6.035
  ZNF281 ΔCT (B2M): 4.965
Normalized to B2M, array control, three lines
  RTC ΔCT (B2M): 2.769 and 2.834 and 2.808
Vs DMSO
  ADARB1 ΔΔCT: 0.046
  AFF1 ΔΔCT: −0.363
  AK2 ΔΔCT: 0.272
  AMPD3 ΔΔCT: 0.178
  ANGPTL4 ΔΔCT: 0.119
  ANXA4 ΔΔCT: −0.111
  ARID68 ΔΔCT: 0.334
  ASPH ΔΔCT: 0.286
  ATF4 ΔΔCT: 0.467
  BCL6 ΔΔCT: 0.227
  BMPER ΔΔCT: 1.488
  CEBPA ΔΔCT: −3.545
  CEBPB ΔΔCT: 0.447
  COL4A2 ΔΔCT: 2.238
  CREB1 ΔΔCT: 0.249
  CREB3L4 ΔΔCT: 0.138
  CREB3 ΔΔCT: 0.344
  CTGF ΔΔCT: −0.518
  CYB561 ΔΔCT: −5.412
  DDIT4 ΔΔCT: 0.007
  DUSP1 ΔΔCT: −0.039
  EDN1 ΔΔCT: 1.460
  EHD3 ΔΔCT: −3.030
  ERRFI1 ΔΔCT: −1.929
  FK8PS ΔΔCT: −3.032
  FOSL2 ΔΔCT: −1.462
  GDPD1 ΔΔCT: 0.471
  GHRHR ΔΔCT: 2.393
  GLUL ΔΔCT: 0.971
  GOT1 ΔΔCT: 0.132
  H6PD ΔΔCT: 0.093
  HNRPLL ΔΔCT: −0.740
  KLF9 ΔΔCT: 0.181
  KLF13 ΔΔCT: −0.098
  LOX ΔΔCT: −0.132
  MERTK ΔΔCT: −0.108
  NFKBIA ΔΔCT: 0.167
  NR3C1 ΔΔCT: 0.261
  PDCD7 ΔΔCT: 0.194
  PDP1 ΔΔCT: −0.255
  PER1 ΔΔCT: 0.206
  PER2 ΔΔCT: −0.374
  PIK3R1 ΔΔCT: −0.032
  PLEKHF1 ΔΔCT: −0.507
  POU2F1 ΔΔCT: 0.058
  POU2F2 ΔΔCT: 0.131
  RASA3 ΔΔCT: 0.917
  RGS2 ΔΔCT: 0.504
  RHOB ΔΔCT: −1.483
  SESN1 ΔΔCT: 0.055
  SGK1 ΔΔCT: 0.621
  SLC19A2 ΔΔCT: −0.308
  SLC22A5 ΔΔCT: 0.033
  SNTA1 ΔΔCT: 0.399
  SPHK1 ΔΔCT: −1.381
  SPSB1 ΔΔCT: 0.025
  STAT5A ΔΔCT: −0.033
  STAT5B ΔΔCT: 0.258
  TBL1XR1 ΔΔCT: 0.030
  TNF ΔΔCT: 0.954
  TNFAIP3 ΔΔCT: −0.307
  TSC22D3 ΔΔCT: 0.009
  USP2 ΔΔCT: 0.013
  USPS4 ΔΔCT: −0.274
  VDR ΔΔCT: −0.547
  VLDLR ΔΔCT: 0.499
  ZFP36 ΔΔCT: 0.243
  ZHX3 ΔΔCT: −0.156
  ZNF281 ΔΔCT: −0.092
